Measurements: a melting point compilation (Tetko et al.; mined from patent text by program, amines drawn as free bases though some values may be those of a salt)

melting point | Compound
188 to 189 °C | O=C(NCc1ccccn1)Nc1cc(N2CC(c3cccc(F)c3)CC2=O)ccn1 (centres undefined)
160 to 162 °C | CN(C)c1cccc2c(S(=O)(=O)Nc3ccc(Cl)cn3)cccc12
151 to 152 °C | O=C(C(=O)N1C(=O)CC[C@H]1C(=O)O)c1ccccc1
131 to 132 °C | C=CCOC(=O)Nc1cc(C(C)(C)C)[nH]n1
260 to 262 °C | COC(=O)c1cc(C(=O)O)c2c(Cl)cc(Cl)cc2n1
133 to 137 °C | Cc1ccccc1C(=O)NC(n1cncn1)C(Cl)(Cl)CCl (centres undefined)
249 to 251 °C | CCCOc1ccc(S(=O)(=O)N2CCN(C(C)=O)CC2)cc1-c1nc2cc(N)c([N+](=O)[O-])cc2c(=O)[nH]1
175 to 177 °C | COc1ccccc1[C@@]1(O)[C@H](O)CC(c2ccccc2)(c2ccccc2)[C@@H]2CN(C(=O)Cc3ccccc3N(C)C)C[C@@H]21 (racemic)
194 to 196 °C | CC(C)(C)c1nc(C=C2SC(=S)N(N)C2=O)nc(C(C)(C)C)c1O
197 to 198 °C | CC(O)c1c[nH]c(-c2ccccc2)n1 (centres undefined)
114 to 115 °C | COc1cc(OC)c2c(=O)cc(-c3ccc(C(F)(F)F)cc3)oc2c1C1CCN(C)C1CO (centres undefined)
73 to 76 °C | CC=CC(=O)Oc1ccc(Nc2ccccc2)cc1
86 to 87 °C | CC1COc2ccccc2O1 (centres undefined)
127 to 129 °C | Cc1ccc(-n2nc3c(cc2=O)CCCc2sc(C=O)cc2-3)cc1
151 to 152 °C | Cc1nnnn1C(C=O)=C(c1ccc(F)cc1)c1ccc(F)cc1
162 to 165 °C | Cc1cc(Cc2cc(C(F)(F)F)cc(C(F)(F)F)c2)ccc1NC(=O)c1cccc(Cl)c1C(=O)NC(C)CS(C)=O (centres undefined)
177 to 179 °C | N#CC(C#N)=C(Cl)c1ccc(C(Cl)=C(C#N)C#N)cc1
> 220 °C | O=C1CCC(c2ccc(O)cc2)=NN1c1ccccn1
146 °C | O=C(Cc1ccc(Cl)cc1Cl)Nc1ccccc1
80 to 82 °C | Cc1ccc2c(c1)cc(C(=O)OCc1ccccc1)n2CC(=O)OC(C)(C)C
91 to 93 °C | c1cc(OC[C@H]2CO2)cc(-c2noc3ncccc23)c1
295 to 296 °C | O=c1c2[nH]nnc2nc2sc(CCc3ccccc3)nn12
131 °C | CCN(CC)CCNC(=O)c1ccc(NC(=O)c2ccc3c(c2)OCO3)cc1OC
125 to 126 °C | CC(=O)NC[C@H]1CN(c2cc(F)c(C3CCNCC3)c(F)c2)C(=O)O1

melting point | Compound
113 to 114 °C | Cn1c2ccccc2c2sccc(=O)c21
83.5 to 84 °C | CN(C)C=CC(=O)c1ccc(F)cc1
178 °C | COCc1cccc(-c2c(Cl)ncn2-c2ccc(S(C)(=O)=O)cc2)c1
35.5 to 36 °C | CCSC(=O)CCS(=O)CC (centres undefined)
85 to 87 °C | O=C(CCl)c1ccc2c(c1)CCO2
212 to 217 °C | CCN(CC)c1ccc(NC(=O)N(C[C@H]2CC[C@H](CN(C(=O)Nc3ccc(N(CC)CC)cc3)C3CCCCC3)CC2)C2CCCCC2)cc1
244 to 246 °C | Nc1ncc(-c2ccc3nnn(Cc4ccc5ncccc5c4)c3n2)cn1
212 to 214 °C | Cc1ccccc1-c1ccc(C(=O)N2Cc3ccc(C(=O)C(Cl)(Cl)Cl)n3Cc3ccccc32)cc1C
72 to 74 °C | COC(=O)C=Cc1ccc(OC)c(OC)c1
161 to 163 °C | O=C1NC(=O)C(Cc2ccc(OCCON=Cc3ccccn3)cc2)S1 (centres undefined)
250 to 252 °C | Cn1cc(C2=C(c3cn(CCO)c4ccccc34)C(=O)NC2=O)c2ccccc21
95 to 97 °C | CC(C(=O)c1ccc(O)cc1)N1CCC(O)(c2ccccc2)CC1 (centres undefined)
244 to 245 °C | NS(=O)(=O)c1ccc(-n2cnc3c(-c4ccc(C(F)(F)F)cc4F)ncnc32)cc1
158 to 159 °C | O=S(=O)(Nc1cc(Cl)cc(Cl)c1)c1cc(Br)ccc1O
132 °C | O=C1C(=Cc2ccncc2)COc2ccccc21
130 to 131 °C | O=C1c2ccccc2C(=O)N1Cc1ccc(Br)nc1
150 to 151 °C | COc1cc2c(cc1OC)CC(NC(=O)N(C)O)CC2 (centres undefined)
60 to 62 °C | CC(C)(C)OC(=O)N1CCC(c2ccc([N+](=O)[O-])cc2)CC1
140 to 141 °C | Cn1ccc2cc(C(=O)NN)ccc21
39 to 41 °C | CCCCCCCC(O)C(C)(C)C(=O)O (centres undefined)
209 to 210 °C | COc1cc2c(cc1OC)OCCC(C(=O)O)=C2
51 to 52 °C | C=COCCOc1ccc(Oc2ccccc2)cc1
164 °C | Cc1ncn(Nc2cccc(Cl)c2)c1-c1cccc(Br)c1
216 to 218 °C | NNC(=O)c1ccc2oc3ccccc3c2c1

melting point | Compound
186 to 187 °C | O=C(CCl)Nc1c(S)cccc1Cl
162 to 164 °C | CN(C)CC=Cc1ccc2c(c1)CCCN2C(=O)c1ccc(-c2ccc(Cl)cc2)cc1
198 to 199 °C | O=C1NCc2c(-c3ccccc3)cccc2N1Cc1ccccc1
66 °C | COC(=O)CCCCC#Cc1cc(Cl)ccc1N
285 °C | NS(=O)(=O)c1cccc(-c2noc(-c3cnn4c(C5CC5)cc(-c5ccc(Cl)cc5)nc34)n2)c1
245 °C | NC(=O)C(Nc1cccc2c1C(=O)CO2)c1c(Cl)cccc1Cl (centres undefined)
204 to 205 °C | COC(=O)c1sc2cc(C(F)(F)F)ccc2c1NC(C)=O
106 to 107 °C | COCCNC(=O)c1cccc(-c2cccc3cc(Cc4cc(F)cc(C(F)(F)F)c4)sc23)c1
120 to 121 °C | O=C(CBr)NC1(F)C=CC=CC1C(=O)c1ccccc1 (centres undefined)
129 to 131 °C | CSc1nc(-c2cc(C(C)(C)C)c(O)c(C(C)(C)C)c2)c(-c2ccccc2)[nH]1
28 to 29 °C | CCCCCCCCCCCCCCc1ccc(C(=O)OC)cc1
134 °C | COc1ccccc1CNc1ccc2cc(Nc3ccccn3)ccc2n1
37 to 38 °C | CCCCCCCCCCCCOc1cc(O)c(C(=O)c2ccccc2)c(OCCCCCCCCCCCC)c1
127 to 128 °C | CN(C)C(=N)c1c(Cl)cc(N=Cc2ccc(N(C)C)cc2F)cc1Cl
99 to 104 °C | CC(C)C[C@H](NC(=O)c1ccccc1Cl)C(=O)N[C@@H](C(C)C)[C@@H](O)c1c(-c2ccccc2)c1=O
200 to 201 °C | CCc1csc(CCc2ccc(NC(=O)/C=C/c3cnn(C)c3-c3ccc(F)cc3)cc2)n1
221 °C | CCCn1c(=O)c2[nH]c(/C=C/c3cc(OC)c(OCc4ccccc4)c(OC)c3)nc2n(CCC)c1=O
276 °C | CC(=O)N(C)C1Cc2ccc(C(=O)Cn3cnc4cc(-c5ccc(Cl)cc5)sc4c3=O)cc2C1 (centres undefined)
258 to 261 °C | CCCNC1=NS(=O)(=O)c2sc(Cl)cc2N1
236 to 239 °C | Oc1nccc2cccnc12
185 to 186 °C | CCN1CCN(c2nccc(Oc3ccc(NC(=O)c4cc(F)cc(N5CCOCC5)c4)c4ccccc34)n2)CC1
222 to 226 °C | Cc1cc(=O)c(C(=O)Nc2ccccc2)c(-c2ccccc2)o1
159 to 161 °C | Cc1nnc2ccc(-c3cccc(N(C)C(=O)N(C)C)c3)nn12
133 °C | O=C1c2ccc(Cl)cc2CC1S(=O)(=O)c1ccccc1 (centres undefined)

melting point | Compound
98 to 99 °C | Cc1ccc(-c2ccccc2C(=O)NN)cc1
150 °C | CC(C)OP(=O)(/C=C/CCn1cnc2c(Cl)nc(N)nc21)OC(C)C
153 to 154 °C | CCN(CC)C(=O)n1cc(Cc2ccc(C(=O)NS(=O)(=O)c3ccccc3C)cc2OC)c2cc(C(=O)NCC(C)CC(F)(F)F)ccc21 (centres undefined)
210 to 211 °C | O=C(CCCCc1ccccc1)NC(C(=O)Nc1n[nH]c(=S)s1)c1ccccc1 (centres undefined)
152 to 155 °C | O=C(c1ccccc1)c1cc(Cc2ccccc2)c(O)c2ccccc12
179 to 181 °C | O=C(O)Cc1ccc(CN2CCN(c3ccccc3C(=O)O)CC2)cc1
76 to 77 °C | COCOc1cc(OC)c(OCOC)c(CCCCCc2c(OC)c(OCOC)c(C)c(OC)c2OCOC)c1OC
88 to 90 °C | CSc1ccc(-c2c(Cl)nc(Cl)nc2-c2ccccc2)cc1
117 to 119 °C | CC(=O)NC1Cc2ccc(Cl)cc2C1 (centres undefined)
193 to 196 °C | C=C(Cl)C[C@H](CC(=O)O)C(=O)N[C@@H](CC1CCCCC1)[C@@H](O)[C@@H](O)CC(C)C
206 to 208 °C | COC(=O)c1ccc2c(=O)n(CC(C)C)c(CNC(=O)OC(C)(C)C)c(-c3cccc(F)c3)c2c1
98 to 100 °C | O=C(CN1C(=O)C2(COc3ccc(-c4cccnc4)cc32)c2ccccc21)Nc1ccccc1F (centres undefined)
155 to 159 °C | O=C1C(=O)c2ccccc2C2=C1SCC1(CCN(CC3CCCO3)CC1)O2 (centres undefined)
144 to 145 °C | COc1ccc(-c2nn(Cc3ccccc3)c(=O)c3ccccc23)c(OC)c1OC
122 to 124 °C | CCC(CCCc1cccnc1)NC(=O)C(O)c1ccccc1 (centres undefined)
112 to 113 °C | CC(C)c1csc(/C=C/c2cccc(OCCC(C)(C)C(=O)O)c2)n1
186 to 187 °C | Nc1nc2cc(OCc3ccccc3)ccc2c2c1nc(CCCCNC(=O)Nc1ccccc1)n2CCOc1ccccc1
102 to 114 °C | COCCOc1ccc(/C=C/C(=O)O)c(OC2CCCCC2)c1
247 to 249 °C | CCCn1c(=O)c2c(nc(C=Cc3cc(OC)c(OC)cc3S(=O)(=O)Nc3ccccc3)n2C)n(CCC)c1=O
155 to 157 °C | COc1ccc(N2CCOCC2)c2sc(-c3nc4c([nH]3)CCN(C(C)=O)C4)nc12
279 to 281 °C | Cc1cc(Cl)ccc1-n1nc(O)c2[nH]c3cc(Cl)ccc3c(=O)c2c1=O
81 to 83 °C | CN(C)c1c(-c2ccc(Cl)cc2)sc2ccccc12

Compound | melting point
COCCOC12CC(CO)CN(C)C1Cc1c[nH]c3cccc2c13 (centres undefined) | 188 to 193 °C
O=C(NC1C(=O)N(CC2C3CC4CC(C3)CC2C4)c2ccccc2N(c2ccccc2)C1=O)Oc1ccccc1 (centres undefined) | 167 to 168 °C
COc1ccc(C(=O)c2c(C)n3c4c(cccc24)OCC3CN2CCOCC2)cc1 (centres undefined) | 182 to 189 °C
Cc1cc2c(cc1O)C(C)(C)CC1(CC(C)(C)c3cc(OCCCn4ccnc4)c(C)cc3O1)O2 (centres undefined) | 209 to 211 °C
COC(=O)C1=C(C(=O)OC)C2OC1c1cc3c(cc12)OCO3 | 117 to 119 °C
